These results are taken from BindingDB's records for doi:10.7270/Q2S180TW (Burnham Center For Chemical Genomics, 2008).

The target of this assay is Heat shock 70 kDa protein 1A (Homo sapiens, UniProt V9GZ37). Briefly: small molecules displacing fluorescent ligand from Hsp70 – biochemical, fluorescence polarization, primary screen (AID 583). As to conditions: pH 7; 23 °C.
Sequence of Heat shock 70 kDa protein 1A (V9GZ37 whole entry): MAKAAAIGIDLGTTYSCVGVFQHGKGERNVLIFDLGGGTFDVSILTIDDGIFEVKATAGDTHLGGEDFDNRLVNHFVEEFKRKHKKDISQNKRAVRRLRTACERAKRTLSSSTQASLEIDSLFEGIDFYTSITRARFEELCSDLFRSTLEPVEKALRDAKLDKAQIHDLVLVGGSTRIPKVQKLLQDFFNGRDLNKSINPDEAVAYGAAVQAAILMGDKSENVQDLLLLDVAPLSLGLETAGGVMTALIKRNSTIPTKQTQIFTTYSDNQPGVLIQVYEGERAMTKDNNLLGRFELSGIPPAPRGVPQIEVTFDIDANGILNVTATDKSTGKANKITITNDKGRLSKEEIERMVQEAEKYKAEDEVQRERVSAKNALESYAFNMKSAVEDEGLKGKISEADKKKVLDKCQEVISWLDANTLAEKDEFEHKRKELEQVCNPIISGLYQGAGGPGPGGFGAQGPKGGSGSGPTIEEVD

The IC50 is the concentration needed to halve the response being measured. Lower therefore signals greater potency. `C=c1[nH]n(-c2cccc(C(=O)O)c2)c(=O)c1=CC=Cc1ccco1` [SMR000113614] displayed an IC50 of 21.7 µM.

Molecule `CC(=O)N1CCC2(CC1)c1c(n[nH]c1C)OC(=N)C2C#N` (configuration not stated) [6-azanyl-1'-ethanoyl-3-methyl-spiro[2H-pyrano[2,3-c]pyrazole-4,4'-piperidine]-5-carbonitrile] gave an IC50 of 100 µM.
